Measurements as given in ChEMBL document CHEMBL1671859, “bla(IMP-4) in different genetic contexts in Enterobacteriaceae isolates from Australia” (2008).
≈ marks a conversion by molar mass, not a printed value.

Columns and labels:
Type in all cases: functional
Klebsiella pneumoniae [1] = experiment: Antibacterial activity against Klebsiella pneumoniae Kp2730 transconjugant harboring IncL/M plasmid and blaIMP-4-qacG2-aacA4-catB3 and dfrA12-orfF-aadA2 arrays by Etest method
Enterobacter cloacae [2] = experiment: Antibacterial activity against Enterobacter cloacae El3518 transconjugant harboring IncL/M plasmid and blaIMP-4-qacG2-aacA4-catB3 array by Etest method
Citrobacter amalonaticus [3] = experiment: Antibacterial activity against Citrobacter amalonaticus Ca3927 transconjugant harboring IncL/M plasmid and blaIMP-4-qacG2-aacA4-catB3 array by Etest method
Enterobacter cloacae [4] = experiment: Antibacterial activity against Enterobacter cloacae El1573 transconjugant harboring IncL/M plasmid and blaIMP-4-qacG2-aacA4-catB3 array by Etest method
Morganella morganii [5] = experiment: Antibacterial activity against Morganella morganii Mm38009 transconjugant harboring IncL/M plasmid and blaIMP-4-qacG2-aacA4-catB3 array by Etest method
Klebsiella pneumoniae [6] = experiment: Antibacterial activity against Klebsiella pneumoniae Kp38045 transconjugant harboring IncL/M plasmid and blaIMP-4-qacG2-aacA4-catB3 array by Etest method
Escherichia coli [7] = experiment: Antibacterial activity against Escherichia coli Ec9381 transconjugant harboring IncL/M plasmid and blaIMP-4-qacG2-aacA4-catB3 array by Etest method
Morganella morganii [8] = experiment: Antibacterial activity against Morganella morganii Mm1229 transconjugant harboring IncL/M plasmid and blaIMP-4-qacG2-aacA4-catB3 array by Etest method
Klebsiella pneumoniae [9] = experiment: Antibacterial activity against Klebsiella pneumoniae Kp3799 transconjugant harboring IncL/M plasmid and blaIMP-4-qacG2-aacA4-catB3 array by Etest method
Klebsiella oxytoca [10] = experiment: Antibacterial activity against Klebsiella oxytoca Ko1156 transconjugant harboring IncL/M plasmid and blaIMP-4-qacG2-aacA4-catB3 array by Etest method
Escherichia coli [11] = experiment: Antibacterial activity against Escherichia coli Ec158 transconjugant harboring IncA/C plasmid and blaIMP-4-qacG2-aacA4-catB3 array by Etest method
Citrobacter koseri [12] = experiment: Antibacterial activity against Citrobacter koseri Ck211 transconjugant harboring IncA/C plasmid and blaIMP-4-qacG2-aacA4-catB3 array by Etest method
Klebsiella oxytoca [13] = experiment: Antibacterial activity against Klebsiella oxytoca Ko238 transconjugant harboring IncA/C plasmid and blaIMP-4-qacG2-aacA4-catB3 array by Etest method
Citrobacter youngae = experiment: Antibacterial activity against Citrobacter youngae CyB38 transconjugant harboring blaIMP-4-qacG2-aacA4-catB3 array by Etest method
Klebsiella pneumoniae [14] = experiment: Antibacterial activity against Klebsiella pneumoniae isolate Kp1239 harboring IncL/M plasmid and blaIMP-4-qacG2-aacA4-catB3 array by Etest method
Klebsiella pneumoniae [15] = experiment: Antibacterial activity against Klebsiella pneumoniae isolate Kp2730 harboring IncL/M plasmid and blaIMP-4-qacG2-aacA4-catB3 and dfrA12-orfF-aadA2 arrays by Etest method
Enterobacter cloacae [16] = experiment: Antibacterial activity against Enterobacter cloacae isolate El3280 harboring IncL/M plasmid and blaIMP-4-qacG2-aacA4-catB3 array by Etest method
Enterobacter cloacae [17] = experiment: Antibacterial activity against Enterobacter cloacae isolate El3518 harboring IncL/M plasmid and blaIMP-4-qacG2-aacA4-catB3 array by Etest method
Citrobacter amalonaticus [18] = experiment: Antibacterial activity against Citrobacter amalonaticus isolate Ca3927 harboring IncL/M plasmid and blaIMP-4-qacG2-aacA4-catB3 array by Etest method
Serratia marcescens [19] = experiment: Antibacterial activity against Serratia marcescens isolate Sm2723 harboring IncL/M plasmid and blaIMP-4-qacG2-aacA4-catB3 array by Etest method
Klebsiella pneumoniae [20] = experiment: Antibacterial activity against Klebsiella pneumoniae isolate Kp7564 harboring IncL/M plasmid and blaIMP-4-qacG2-aacA4-catB3 array by Etest method
Citrobacter amalonaticus [21] = experiment: Antibacterial activity against Citrobacter amalonaticus isolate Ca38009 harboring IncL/M plasmid and blaIMP-4-qacG2-aacA4-catB3 array by Etest method
Morganella morganii [22] = experiment: Antibacterial activity against Morganella morganii isolate Mm38009 harboring IncL/M plasmid and blaIMP-4-qacG2-aacA4-catB3 array by Etest method
Klebsiella pneumoniae [23] = experiment: Antibacterial activity against Klebsiella pneumoniae isolate Kp38045 harboring IncL/M plasmid and blaIMP-4-qacG2-aacA4-catB3 array by Etest method
Klebsiella pneumoniae [24] = experiment: Antibacterial activity against Klebsiella pneumoniae isolate Kp3799 harboring IncL/M plasmid and blaIMP-4-qacG2-aacA4-catB3 array by Etest method
Klebsiella oxytoca [25] = experiment: Antibacterial activity against Klebsiella oxytoca isolate Ko0426 harboring IncL/M plasmid and blaIMP-4-qacG2-aacA4-catB3 array by Etest method
Klebsiella oxytoca [26] = experiment: Antibacterial activity against Klebsiella oxytoca isolate Ko1156 harboring IncL/M plasmid and blaIMP-4-qacG2-aacA4-catB3 array by Etest method
Escherichia coli [27] = experiment: Antibacterial activity against Escherichia coli isolate Ec158 harboring IncA/C plasmid and blaIMP-4-qacG2-aacA4-catB3 array by Etest method
Klebsiella pneumoniae [28] = experiment: Antibacterial activity against Klebsiella pneumoniae isolate Kp149 harboring IncA/C plasmid and blaIMP-4-qacG2-aacA4-catB3 array by Etest method
Serratia marcescens [29] = experiment: Antibacterial activity against Serratia marcescens isolate Sm201 harboring IncA/C plasmid and blaIMP-4-qacG2-aacA4-catB3 array by Etest method
Serratia marcescens [30] = experiment: Antibacterial activity against Serratia marcescens isolate Sm203 harboring IncA/C plasmid and blaIMP-4-qacG2-aacA4-catB3 array by Etest method
Klebsiella pneumoniae [31] = experiment: Antibacterial activity against Klebsiella pneumoniae isolate Kp211 harboring IncA/C plasmid and blaIMP-4-qacG2-aacA4-catB3 array by Etest method
Escherichia coli [32] = experiment: Antibacterial activity against Escherichia coli isolate Ec211 harboring IncA/C plasmid and blaIMP-4-qacG2-aacA4-catB3 array by Etest method
Klebsiella pneumoniae [33] = experiment: Antibacterial activity against Klebsiella pneumoniae isolate Kp266 harboring IncA/C plasmid and blaIMP-4-qacG2-aacA4-catB3 array by Etest method
Citrobacter koseri [34] = experiment: Antibacterial activity against Citrobacter koseri isolate Ck211 harboring IncA/C plasmid and blaIMP-4-qacG2-aacA4-catB3 array by Etest method
Enterobacter cloacae [35] = experiment: Antibacterial activity against Enterobacter cloacae isolate El216 harboring IncA/C plasmid and blaIMP-4-qacG2-aacA4-catB3 array by Etest method
Escherichia coli [36] = experiment: Antibacterial activity against Escherichia coli isolate Ec221 harboring IncA/C plasmid and blaIMP-4-qacG2-aacA4-catB3 array by Etest method
Klebsiella oxytoca [37] = experiment: Antibacterial activity against Klebsiella oxytoca isolate Ko238 harboring IncA/C plasmid and blaIMP-4-qacG2-aacA4-catB3 array by Etest method
Klebsiella pneumoniae [38] = experiment: Antibacterial activity against Klebsiella pneumoniae isolate Kp204 harboring IncA/C plasmid and blaIMP-4-qacG2-aacA4-catB3 array by Etest method
Serratia marcescens [39] = experiment: Antibacterial activity against Serratia marcescens isolate Sm265 harboring IncA/C plasmid and blaIMP-4-qacG2-aacA4-catB3 array by Etest method
Acinetobacter = experiment: Antibacterial activity against Acinetobacter isolate A74510 harboring blaIMP-4-qacG2-aacA4-catB3 array by Etest method
Acinetobacter baumannii = experiment: Antibacterial activity against Acinetobacter baumannii isolate AbN450 harboring […]-qacG2-aacA4-catB3 array by Etest method

## CO/N=C(\C(=O)N[C@@H]1C(=O)N2C(C(=O)O)=C(COC(C)=O)CS[C@H]12)c1csc(N)n1 [CEFOTAXIME]
Klebsiella pneumoniae [1]
  MIC: 32 µg/mL (≈ 70.3 µM)
Enterobacter cloacae [2]
  MIC: 32 µg/mL (≈ 70.3 µM)
Citrobacter amalonaticus [3]
  MIC: 32 µg/mL (≈ 70.3 µM)
Enterobacter cloacae [4]
  MIC: 16 µg/mL (≈ 35.1 µM)
Morganella morganii [5]
  MIC: 32 µg/mL (≈ 70.3 µM)
Klebsiella pneumoniae [6]
  MIC: 32 µg/mL (≈ 70.3 µM)
Escherichia coli [7]
  MIC: 32 µg/mL (≈ 70.3 µM)
Morganella morganii [8]
  MIC: 32 µg/mL (≈ 70.3 µM)
Klebsiella pneumoniae [9]
  MIC: 32 µg/mL (≈ 70.3 µM)
Klebsiella oxytoca [10]
  MIC: 16 µg/mL (≈ 35.1 µM)
Escherichia coli [11]
  MIC: > 32 µg/mL
Citrobacter koseri [12]
  MIC: > 2 µg/mL
Klebsiella oxytoca [13]
  MIC: 32 µg/mL (≈ 70.3 µM)
Citrobacter youngae
  MIC: > 32 µg/mL
Klebsiella pneumoniae [14]
  MIC: > 32 µg/mL
Klebsiella pneumoniae [15]
  MIC: > 32 µg/mL
Enterobacter cloacae [16]
  MIC: > 32 µg/mL
Enterobacter cloacae [17]
  MIC: > 32 µg/mL
Citrobacter amalonaticus [18]
  MIC: > 32 µg/mL
Serratia marcescens [19]
  MIC: > 32 µg/mL
Klebsiella pneumoniae [20]
  MIC: 32 µg/mL (≈ 70.3 µM)
Citrobacter amalonaticus [21]
  MIC: > 32 µg/mL
Morganella morganii [22]
  MIC: 32 µg/mL (≈ 70.3 µM)
Klebsiella pneumoniae [23]
  MIC: 32 µg/mL (≈ 70.3 µM)
Klebsiella pneumoniae [24]
  MIC: > 32 µg/mL
Klebsiella oxytoca [25]
  MIC: 32 µg/mL (≈ 70.3 µM)
Klebsiella oxytoca [26]
  MIC: 32 µg/mL (≈ 70.3 µM)
Escherichia coli [27]
  MIC: > 32 µg/mL
Klebsiella pneumoniae [28]
  MIC: > 32 µg/mL
Serratia marcescens [29]
  MIC: > 32 µg/mL
Serratia marcescens [30]
  MIC: > 32 µg/mL
Klebsiella pneumoniae [31]
  MIC: > 32 µg/mL
Escherichia coli [32]
  MIC: > 32 µg/mL
Klebsiella pneumoniae [33]
  MIC: > 32 µg/mL
Citrobacter koseri [34]
  MIC: > 32 µg/mL
Enterobacter cloacae [35]
  MIC: > 32 µg/mL
Escherichia coli [36]
  MIC: > 32 µg/mL
Klebsiella oxytoca [37]
  MIC: > 32 µg/mL
Klebsiella pneumoniae [38]
  MIC: > 32 µg/mL
Serratia marcescens [39]
  MIC: > 32 µg/mL
Acinetobacter
  MIC: > 32 µg/mL
Acinetobacter baumannii
  MIC: > 32 µg/mL

## NC[C@H]1O[C@H](O[C@H]2[C@H](O)[C@@H](O[C@H]3O[C@H](CO)[C@@H](O)[C@H](N)[C@H]3O)[C@H](N)C[C@@H]2N)[C@H](N)C[C@@H]1O [TOBRAMYCIN]
Klebsiella pneumoniae [1]
  MIC: 8 µg/mL (≈ 17.1 µM)
Enterobacter cloacae [2]
  MIC: > 8 µg/mL
Citrobacter amalonaticus [3]
  MIC: 8 µg/mL (≈ 17.1 µM)
Enterobacter cloacae [4]
  MIC: 8 µg/mL (≈ 17.1 µM)
Morganella morganii [5]
  MIC: 8 µg/mL (≈ 17.1 µM)
Klebsiella pneumoniae [6]
  MIC: 8 µg/mL (≈ 17.1 µM)
Escherichia coli [7]
  MIC: 8 µg/mL (≈ 17.1 µM)
Morganella morganii [8]
  MIC: 8 µg/mL (≈ 17.1 µM)
Klebsiella pneumoniae [9]
  MIC: 8 µg/mL (≈ 17.1 µM)
Klebsiella oxytoca [10]
  MIC: 8 µg/mL (≈ 17.1 µM)
Escherichia coli [11]
  MIC: 8 µg/mL (≈ 17.1 µM)
Citrobacter koseri [12]
  MIC: 8 µg/mL (≈ 17.1 µM)
Klebsiella oxytoca [13]
  MIC: 8 µg/mL (≈ 17.1 µM)
Citrobacter youngae
  MIC: 8 µg/mL (≈ 17.1 µM)
Klebsiella pneumoniae [14]
  MIC: 8 µg/mL (≈ 17.1 µM)
Klebsiella pneumoniae [15]
  MIC: > 8 µg/mL
Enterobacter cloacae [16]
  MIC: > 8 µg/mL
Enterobacter cloacae [17]
  MIC: > 8 µg/mL
Citrobacter amalonaticus [18]
  MIC: > 8 µg/mL
Serratia marcescens [19]
  MIC: > 8 µg/mL
Klebsiella pneumoniae [20]
  MIC: 8 µg/mL (≈ 17.1 µM)
Citrobacter amalonaticus [21]
  MIC: > 8 µg/mL
Morganella morganii [22]
  MIC: 4 µg/mL (≈ 8.56 µM)
Klebsiella pneumoniae [23]
  MIC: 8 µg/mL (≈ 17.1 µM)
Klebsiella pneumoniae [24]
  MIC: > 8 µg/mL
Klebsiella oxytoca [25]
  MIC: > 8 µg/mL
Klebsiella oxytoca [26]
  MIC: > 8 µg/mL
Escherichia coli [27]
  MIC: 8 µg/mL (≈ 17.1 µM)
Klebsiella pneumoniae [28]
  MIC: > 8 µg/mL
Serratia marcescens [29]
  MIC: > 8 µg/mL
Serratia marcescens [30]
  MIC: > 8 µg/mL
Klebsiella pneumoniae [31]
  MIC: 8 µg/mL (≈ 17.1 µM)
Escherichia coli [32]
  MIC: > 8 µg/mL
Klebsiella pneumoniae [33]
  MIC: > 8 µg/mL
Citrobacter koseri [34]
  MIC: 8 µg/mL (≈ 17.1 µM)
Enterobacter cloacae [35]
  MIC: > 8 µg/mL
Escherichia coli [36]
  MIC: 8 µg/mL (≈ 17.1 µM)
Klebsiella oxytoca [37]
  MIC: 8 µg/mL (≈ 17.1 µM)
Klebsiella pneumoniae [38]
  MIC: 8 µg/mL (≈ 17.1 µM)
Serratia marcescens [39]
  MIC: > 8 µg/mL
Acinetobacter
  MIC: > 8 µg/mL
Acinetobacter baumannii
  MIC: > 8 µg/mL
